{"source": "patent US20260199339A1", "about": "“COMBINATION THERAPY FOR TREATING ABNORMAL CELL GROWTH” (Verastem, Inc., priority 2020, published 2026)", "key": {"[1]": {"system": "A549", "assay": "Cell viability after VS-6766 treatment, A549", "assay_type": "cell-based, human", "details": "A549, 48 hours"}, "[2]": {"system": "TOV21G", "assay": "Cell viability after VS-6766 treatment, TOV21G", "assay_type": "cell-based, human", "details": "48 hours"}, "[3]": {"system": "WM115", "assay": "Cell viability after VS-6766 treatment, WM115", "assay_type": "cell-based, human", "details": "WM115, 48 hours"}, "[4]": {"system": "SKMEL5", "assay": "Cell viability after VS-6766 treatment, SKMEL5", "assay_type": "cell-based, human", "details": "SKMEL5, 48 hours"}, "[5]": {"system": "IGR-1", "assay": "Cell viability after VS-6766 treatment, IGR-1", "assay_type": "cell-based, human", "details": "IGR-1, 48 hours"}, "[6]": {"system": "KRAS/BRAF mutant human cancer cell lines", "assay": "RNA extraction and qRT-PCR of MHC-I antigen presentation genes", "assay_type": "cell-based", "details": "FIG. 1", "experimental": "RNA Extraction and qRT-PCR\nCells were seeded into 6-cm dishes and after an incubate overnight (17~22 hrs) cells were treated with VS-6766 for 48 hours at a concentration that gave an 80% cell viability (1 μM for A549, TOV21G and WM115, and 300 nM for SKMEL5 and IGR-1). RNA was extracted using RNeasy® Plus Mini kit (Qiagen) and converted to cDNA using the cDNA by High-Capacity cDNA Reverse Transcription Kit (Applied Biosystems). TaqMan qPCR was run using HLA-A, B2M, TAP1 and TAP-2 probes from Applied Biosystems. VIC-GAPDH probe as the house keeping gene. Each PCR reaction will be run in triplicate wells. Expression levels were computed as the difference (ΔCT) between the target gene CT and GAPDH CT."}, "[7]": {"system": "CT26 KRAS (G12D)-mutant colorectal cancer mouse models", "assay": "Syngeneic CT26 tumor mouse study, VS-6766 and/or anti-PD-1", "assay_type": "in vivo", "details": "VS-6766 0.5 mg/kg PO QD x 28 days; anti-PD-1 60 μg/mouse (3 mg/kg) IP BIW x 4 doses; Balb/c mice; FIG. 2A, 2B", "experimental": "CT26 tumor cells were obtained from ATCC and Balb/c mice were obtained from Shanghai Lingchang Biotechnology. Tumor challenge was initiated by subcutaneous inoculation of 3×10^5 CT26 tumor cell suspensions into the right flank of recipient mice. Tumor sizes (mm3) were measured and calculated as described above. Once tumors reached an average volume of 50-80 mm3, mice were sorted into 4 groups (n=10): vehicle (5% DMSO, 10% HPCD in sterile water, oral dosing (PO), once per day (QD), 28 days)+isotype control ([…] intraperitoneally (IP) biweekly, 4 doses; rat IgG2a clone 2A3, BioXcell), VS-6766 (0.5 mg/kg PO QD, 28 days)+isotype control, anti-PD-1 (60 μg/mouse IP biweekly, 4 doses; clone RMP1-14, BioXCell), and VS-6766+anti-PD-1. Tumors and body weights were measured 3 times per week for the duration of the study. At the time of routine monitoring, the animals were checked for any effects of tumor growth and treatments on normal behavior such as mobility, food and water consumption (by looking only), and body weight gain/loss, eye/hair matting and any other abnormal effect. For Kaplan-Meier analysis, an event was defined by death or tumor growth beyond 2,000 mm^3."}}, "note": "“Also recorded” adds a separate entry of the source.", "data": [{"smiles": "CNS(=O)(=O)Nc1nccc(Cc2c(C)c3ccc(Oc4ncccn4)cc3oc2=O)c1F", "note": "[VS-6766]", "values": [{"measurement": "concentration that gave an 80% cell viability", "setting": "[1]", "value": 1, "unit": "µM"}, {"measurement": "concentration that gave an 80% cell viability", "setting": "[2]", "value": 1, "unit": "µM"}, {"measurement": "concentration that gave an 80% cell viability", "setting": "[3]", "value": 1, "unit": "µM"}, {"measurement": "concentration that gave an 80% cell viability", "setting": "[4]", "value": 300, "unit": "nM"}, {"measurement": "concentration that gave an 80% cell viability", "setting": "[5]", "value": 300, "unit": "nM"}, {"measurement": "HLA-A expression", "setting": "[6]; 48 h, qRT-PCR", "value": "increased"}, {"measurement": "TAP1 expression", "setting": "[6]; 48 h, qRT-PCR", "value": "increased"}, {"measurement": "TAP2 expression", "setting": "[6]; 48 h, qRT-PCR", "value": "increased"}, {"measurement": "β2M expression", "setting": "[6]; 48 h, qRT-PCR", "value": "increased"}, {"measurement": "tumor antigen presentation (markers associated with antigen presentation, MHC-I expression)", "setting": "[6]; multiple KRAS/BRAF mutant human cancer cell lines", "value": "increase tumor antigen presentation; also recorded: upregulates"}, {"measurement": "tumor growth / antitumor efficacy (tumor volume)", "setting": "[7]", "value": "delay tumor growth"}]}]}
